Bridge positions count the residues as written; N and C are the ends. Square brackets hold non-standard residues; d marks the D form. Peptide text beside a SMILES is read from it. Nle = CCCC[C@H](N)C(=O)O

The target in series [1] is T1, human Kv1.3 voltage-gated K+ channel (Homo sapiens, UniProt P22001).
T1 construct: host or cells: CHO-DUKX
Kind of series: cell-based. Conditions: inhibition of thallium flux, CHO-DUKX cells with human Kv1.3; read-out: IC50.

Series [2] concerns the target T2, Kv1.3 (Homo sapiens, UniProt P22001).
T2 construct: expressed in transfected cells; host or cells: Chinese Hamster Ovary (CHO)
Kind of series: cell-based. Conditions: CHO cells, whole-cell patch clamp; read-out: Potency IC50 (nM) Kv1.3.

Series [3] is described as follows: in vivo. Conditions: male, rat, sc, 70 nmol/kg.
The target in series [4] is T3, Kv1.6 (Homo sapiens, UniProt P17658).
T3 construct: expressed in transfected cells; host or cells: Chinese Hamster Ovary (CHO)
T3 sequence (P17658 whole entry): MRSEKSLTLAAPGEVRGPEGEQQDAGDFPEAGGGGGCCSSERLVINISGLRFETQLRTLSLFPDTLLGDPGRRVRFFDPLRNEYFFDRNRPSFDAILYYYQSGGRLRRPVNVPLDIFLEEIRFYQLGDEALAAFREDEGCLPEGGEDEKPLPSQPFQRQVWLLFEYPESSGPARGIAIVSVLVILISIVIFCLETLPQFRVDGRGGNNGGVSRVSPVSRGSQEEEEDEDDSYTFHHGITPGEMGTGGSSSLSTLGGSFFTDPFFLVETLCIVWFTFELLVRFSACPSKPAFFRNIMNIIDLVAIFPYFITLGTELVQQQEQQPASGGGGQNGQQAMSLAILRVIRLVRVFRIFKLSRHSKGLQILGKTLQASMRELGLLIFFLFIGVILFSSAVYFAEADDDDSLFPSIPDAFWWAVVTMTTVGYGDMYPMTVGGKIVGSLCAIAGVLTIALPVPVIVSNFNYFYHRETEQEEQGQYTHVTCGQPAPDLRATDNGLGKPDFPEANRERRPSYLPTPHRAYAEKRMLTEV
Kind of series: cell-based. Conditions: for IC50: CHO cells, whole-cell patch clamp, read-out: Potency IC50 (nM) Kv1.6; for Selectivity Kv1.6/Kv1.3: ratio IC50[Kv1.6]/IC50[Kv1.3]. On the technique in general: In patch-clamp work, channel activity is measured electrically.

Series [5] addresses T4, Kv1.2 (Homo sapiens, UniProt P16389).
T4 construct: expressed in transfected cells; host or cells: Chinese Hamster Ovary (CHO)
In words: cell-based. Conditions: CHO cells, whole-cell patch clamp; read-out: Potency IC50 (nM) Kv1.2.

Series [6] concerns the target T5, Kv1.1 (Homo sapiens, UniProt Q09470).
T5 construct: expressed in transfected cells; host or cells: Chinese Hamster Ovary (CHO)
In words: cell-based. Conditions: for IC50: CHO cells, whole-cell patch clamp, read-out: Potency IC50 (nM) Kv1.1; for Selectivity Kv1.1/Kv1.3: ratio IC50[Kv1.1]/IC50[Kv1.3].

For series [7], the target named is Rat whole blood (Rattus norvegicus, UniProt P15384).
Rat whole blood, sequence (P15384 whole entry): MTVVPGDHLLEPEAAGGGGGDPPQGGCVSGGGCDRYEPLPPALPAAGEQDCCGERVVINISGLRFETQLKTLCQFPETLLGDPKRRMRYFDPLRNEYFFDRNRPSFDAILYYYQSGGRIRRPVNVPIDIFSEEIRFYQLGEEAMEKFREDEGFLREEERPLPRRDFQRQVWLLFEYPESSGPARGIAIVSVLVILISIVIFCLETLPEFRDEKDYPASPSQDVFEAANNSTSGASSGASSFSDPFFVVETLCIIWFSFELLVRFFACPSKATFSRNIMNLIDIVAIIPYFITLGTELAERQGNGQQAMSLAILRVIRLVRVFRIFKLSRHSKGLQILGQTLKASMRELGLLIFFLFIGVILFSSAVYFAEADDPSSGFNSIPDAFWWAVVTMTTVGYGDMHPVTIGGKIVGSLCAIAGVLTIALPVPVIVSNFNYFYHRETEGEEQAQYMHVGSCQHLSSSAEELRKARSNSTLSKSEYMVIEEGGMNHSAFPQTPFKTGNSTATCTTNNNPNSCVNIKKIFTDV

T5 sequence (Q09470 whole entry): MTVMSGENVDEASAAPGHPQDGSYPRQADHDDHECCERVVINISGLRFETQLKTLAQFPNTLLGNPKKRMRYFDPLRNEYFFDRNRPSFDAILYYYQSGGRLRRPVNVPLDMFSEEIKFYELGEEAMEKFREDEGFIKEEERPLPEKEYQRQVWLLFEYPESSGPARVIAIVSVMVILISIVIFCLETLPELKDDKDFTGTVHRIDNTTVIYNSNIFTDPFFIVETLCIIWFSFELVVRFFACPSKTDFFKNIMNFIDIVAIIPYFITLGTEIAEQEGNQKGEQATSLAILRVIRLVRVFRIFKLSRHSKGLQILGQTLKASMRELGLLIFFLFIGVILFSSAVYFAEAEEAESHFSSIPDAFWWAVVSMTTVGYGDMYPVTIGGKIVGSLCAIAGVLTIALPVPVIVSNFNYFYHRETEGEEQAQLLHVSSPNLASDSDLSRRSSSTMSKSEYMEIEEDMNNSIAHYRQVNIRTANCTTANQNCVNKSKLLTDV
T1 sequence (P22001 whole entry): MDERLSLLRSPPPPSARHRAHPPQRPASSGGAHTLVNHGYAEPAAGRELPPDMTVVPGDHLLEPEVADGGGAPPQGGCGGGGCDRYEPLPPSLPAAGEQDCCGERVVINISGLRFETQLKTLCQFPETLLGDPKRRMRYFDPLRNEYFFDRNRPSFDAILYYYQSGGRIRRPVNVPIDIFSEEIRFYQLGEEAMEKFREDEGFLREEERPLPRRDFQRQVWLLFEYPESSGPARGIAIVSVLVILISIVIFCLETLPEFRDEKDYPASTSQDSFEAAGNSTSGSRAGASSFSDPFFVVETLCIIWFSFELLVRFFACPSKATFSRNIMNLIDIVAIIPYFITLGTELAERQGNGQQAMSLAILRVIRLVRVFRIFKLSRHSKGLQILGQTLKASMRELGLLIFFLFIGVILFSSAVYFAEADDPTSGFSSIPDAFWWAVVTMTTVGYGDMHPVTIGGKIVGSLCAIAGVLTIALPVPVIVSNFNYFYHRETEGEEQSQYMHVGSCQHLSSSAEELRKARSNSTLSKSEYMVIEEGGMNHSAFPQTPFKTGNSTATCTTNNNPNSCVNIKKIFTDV
T2 sequence (P22001 whole entry): as above
T4 sequence (P16389 whole entry): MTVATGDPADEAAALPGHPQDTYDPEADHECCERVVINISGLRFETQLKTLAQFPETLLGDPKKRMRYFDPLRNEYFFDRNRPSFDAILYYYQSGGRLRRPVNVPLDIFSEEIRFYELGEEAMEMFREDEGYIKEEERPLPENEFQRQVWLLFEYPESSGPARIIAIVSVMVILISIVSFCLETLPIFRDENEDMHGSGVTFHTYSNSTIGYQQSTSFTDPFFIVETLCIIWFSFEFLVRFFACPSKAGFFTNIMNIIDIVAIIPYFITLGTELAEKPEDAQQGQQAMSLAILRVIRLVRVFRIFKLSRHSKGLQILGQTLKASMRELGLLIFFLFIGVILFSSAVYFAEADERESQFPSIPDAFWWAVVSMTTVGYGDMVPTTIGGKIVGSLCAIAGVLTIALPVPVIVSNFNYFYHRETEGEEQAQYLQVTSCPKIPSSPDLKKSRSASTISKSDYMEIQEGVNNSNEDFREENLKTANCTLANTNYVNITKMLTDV

In general, IC50 refers to the concentration needed to halve the response being measured. The AUC(0-inf) is total exposure, with the tail of the curve extrapolated. As a reminder, the Cmax is the peak of the concentration-time curve. As usually defined, the half-life is the time in which the quantity being followed falls by half. For the compound `CC[C@H](C)[C@@H]1NC(=O)[C@H](C)NC(=O)[C@H](Cc2ccc(O)cc2)NC(=O)[C@H](CC(C)C)NC(=O)[C@@H]2CSSC[C@@H](C(=O)N[C@@H](Cc3ccc(O)cc3)C(=O)N3CCC[C@H]3C(=O)N[C@@H](CCCNC(=N)N)C(N)=O)NC(=O)[C@H](CCCCN)NC(=O)[C@@H]3CSSC[C@H](NC(=O)[C@H](CCC(=O)O)NC(=O)[C@H](C(C)C)NC(=O)[C@H](CO)NC(=O)[C@H](C)NC(=O)[C@H](CO)NC(=O)[C@@H](NC(=O)[C@H](CCCNC(=N)N)NC(=O)[C@H](CCSC)NC(=O)[C@H](CC(=O)O)NC(=O)[C@H](CCSC)NC(=O)[C@@H](N)CC(N)=O)CSSC[C@H](NC(=O)[C@H](CCCCN)NC(=O)CNC(=O)[C@H](Cc4ccccc4)NC(=O)[C@H]([C@@H](C)CC)NC(=O)[C@H](CO)NC(=O)CNC1=O)C(=O)N[C@@H](CCSC)C(=O)N[C@@H](CC(N)=O)C(=O)N[C@@H](CCCCN)C(=O)N[C@@H](CCCCN)C(=O)N3)C(=O)N[C@@H](CCCCN)C(=O)N[C@@H](CCC(N)=O)C(=O)N[C@@H](CCCCN)C(=O)N2` [Compound 53] (H-NMDMRCSASVECKQKCLYAIGSIFGKCMNKKCKCYPR-NH2; disulfide 6-27, 12-32, 16-34), the IC50 in series [1] worked out at 0.12 nM. For the same compound, the IC50 in series [2] was 0.29 nM. In series [3], this compound had an AUC(0-inf) of 0.0311 µM·h, a Cmax of 50 nM and a half-life of 52.2 min. In addition, in series [4], the 50% inhibitory concentration (IC50) is > 3000 nM and the “Selectivity Kv1.6/Kv1.3” value was >10300. The 50% inhibitory concentration (IC50) in series [5] turned out to be 149 nM. Also, in series [6], the IC50 is > 3000 nM and the “Selectivity Kv1.1/Kv1.3” value was >10300.
As to `CC[C@H](C)[C@@H]1NC(=O)[C@H](C)NC(=O)[C@H](CCCCN)NC(=O)[C@H](CC(C)C)NC(=O)[C@@H]2CSSC[C@@H](C(=O)N[C@@H](Cc3ccc(O)cc3)C(=O)N3CCC[C@H]3C(=O)N[C@@H](CCCNC(=N)N)C(=O)O)NC(=O)[C@H](CCCCN)NC(=O)[C@@H]3CSSC[C@H](NC(=O)[C@H](CCC(=O)O)NC(=O)[C@H](C(C)C)NC(=O)[C@H](CO)NC(=O)[C@H](C)NC(=O)[C@H](CO)NC(=O)[C@@H](NC(=O)[C@H](CCCNC(=N)N)NC(=O)[C@H](CCSC)NC(=O)[C@H](CC(=O)O)NC(=O)[C@@H](NC(=O)[C@@H](N)CC(N)=O)[C@@H](C)CC)CSSC[C@H](NC(=O)[C@H](CCCCN)NC(=O)CNC(=O)[C@H](Cc4ccccc4)NC(=O)[C@H]([C@@H](C)CC)NC(=O)[C@H](CO)NC(=O)CNC1=O)C(=O)N[C@@H](CCSC)C(=O)N[C@@H](CC(N)=O)C(=O)N[C@@H](CCCCN)C(=O)N[C@@H](CCCCN)C(=O)N3)C(=O)N[C@@H](CCCCN)C(=O)N[C@@H](CCC(N)=O)C(=O)N[C@@H](CCCCN)C(=O)N2` [Compound 8] (H-NIDMRCSASVECKQKCLKAIGSIFGKCMNKKCKCYPR-OH; disulfide 6-27, 12-32, 16-34), the IC50 is 0.47 nM in series [1]; 0.44 nM in series [2]; > 3000 nM in series [4]; 376 nM in series [5]; > 3000 nM in series [6]. For the same compound, the area under the curve AUC(0-inf) in series [3] was 0.0983 µM·h. Also, in series [3], the highest level (Cmax) was 76.9 nM. Also, the half-life in series [3] was 37.2 min. Moreover, in series [4], the “Selectivity Kv1.6/Kv1.3” value is recorded as >6800. The “Selectivity Kv1.1/Kv1.3” value in series [6] was >6800.
On to `CC[C@H](C)[C@@H]1NC(=O)[C@H](C)NC(=O)[C@H](CCCCN)NC(=O)[C@H](CC(C)C)NC(=O)[C@@H]2CSSC[C@@H](C(=O)N[C@@H](Cc3ccc(O)cc3)C(=O)N3CCC[C@H]3C(=O)N[C@@H](CCCNC(=N)N)C(=O)O)NC(=O)[C@H](CCCCN)NC(=O)[C@@H]3CSSC[C@H](NC(=O)[C@H](CCC(=O)O)NC(=O)[C@H](C(C)C)NC(=O)[C@H](CO)NC(=O)[C@H](C)NC(=O)[C@H](CO)NC(=O)[C@@H](NC(=O)[C@H](CCCNC(=N)N)NC(=O)[C@H](CCSC)NC(=O)[C@H](CC(=O)O)NC(=O)[C@@H](N)CCSC)CSSC[C@H](NC(=O)[C@H](CCCCN)NC(=O)CNC(=O)[C@H](Cc4ccccc4)NC(=O)[C@H]([C@@H](C)CC)NC(=O)[C@H](CO)NC(=O)CNC1=O)C(=O)N[C@@H](CCSC)C(=O)N[C@@H](CC(N)=O)C(=O)N[C@@H](CCCCN)C(=O)N[C@@H](CCCCN)C(=O)N3)C(=O)N[C@@H](CCCCN)C(=O)N[C@@H](CCC(N)=O)C(=O)N[C@@H](CCCCN)C(=O)N2` [Compound 5] (H-MDMRCSASVECKQKCLKAIGSIFGKCMNKKCKCYPR-OH; disulfide 5-26, 11-31, 15-33), for which the IC50 in series [1] stood at 0.25 nM. Further, the IC50 in series [2] was 0.38 nM. In addition, in series [3], the AUC(0-inf) was determined as 0.0724 µM·h, the Cmax was 48.4 nM and the half-life was 55.8 min. Besides, in series [4], the 50% inhibitory concentration (IC50) was > 3000 nM and the “Selectivity Kv1.6/Kv1.3” value is >7900. Further, the half-maximal inhibitory concentration (IC50) in series [5] was 285 nM. In series [6], the IC50 is > 3000 nM and the “Selectivity Kv1.1/Kv1.3” value is >7900.
As to `CCCC[C@@H]1NC(=O)[C@@H]2CSSC[C@H](NC(=O)[C@H](CCCNC(=N)N)NC(=O)[C@H](CCCC)NC(=O)[C@H](CC(=O)O)NC(=O)[C@H](CCCC)NC(=O)[C@@H](N)CC(N)=O)C(=O)N[C@@H](CO)C(=O)N[C@@H](Cc3c[nH]cn3)C(=O)N[C@@H](CO)C(=O)N[C@@H](C(C)C)C(=O)N[C@@H](CCC(=O)O)C(=O)N[C@H]3CSSC[C@H](NC(=O)[C@H](CCCCN)NC(=O)[C@H](CCCCN)NC(=O)[C@H](CC(N)=O)NC1=O)C(=O)N[C@@H](CCCCN)C(=O)N[C@H](C(=O)N[C@@H](Cc1ccc(O)cc1)C(=O)N1CCC[C@H]1C(=O)N[C@@H](CCCNC(=N)N)C(N)=O)CSSC[C@H](NC(=O)[C@H](CCCCN)NC(=O)[C@H](CCC(N)=O)NC(=O)[C@H](CCCCN)NC3=O)C(=O)N[C@@H](CC(C)C)C(=O)N[C@@H](CCCCN)C(=O)N[C@@H](C)C(=O)N[C@@H]([C@@H](C)CC)C(=O)NCC(=O)N[C@@H](CO)C(=O)N[C@@H]([C@@H](C)CC)C(=O)N[C@@H](Cc1ccccc1)C(=O)NCC(=O)N[C@@H](CCCCN)C(=O)N2` [Compound 47] (H-N[Nle]D[Nle]RCSHSVECKQKCLKAIGSIFGKC[Nle]NKKCKCYPR-NH2; disulfide 6-27, 12-32, 16-34), the IC50 in series [1] was 0.12 nM; in series [2] it was 0.54 nM; in series [4] it was 609 nM; in series [7], ≤ 1 nM; in series [5], 772 nM; in series [6] it was > 3000 nM. Also, the “Selectivity Kv1.1/Kv1.3” value in series [6] is given as >5600.
Turning to `CC[C@H](C)[C@@H]1NC(=O)[C@H](C)NC(=O)[C@H](CCCCN)NC(=O)[C@H](CCCCN)NC(=O)[C@@H]2CSSC[C@@H](C(=O)N[C@@H](Cc3ccc(O)cc3)C(=O)N3CCC[C@H]3C(=O)N[C@@H](CCCNC(=N)N)C(N)=O)NC(=O)[C@H](CCCCN)NC(=O)[C@@H]3CSSC[C@H](NC(=O)[C@H](CCC(=O)O)NC(=O)[C@H](C(C)C)NC(=O)[C@H](CO)NC(=O)[C@H](C)NC(=O)[C@H](CO)NC(=O)[C@@H](NC(=O)[C@H](CCCNC(=N)N)NC(=O)[C@H](CCSC)NC(=O)[C@H](CC(=O)O)NC(=O)[C@H](CCSC)NC(=O)[C@@H](N)CC(N)=O)CSSC[C@H](NC(=O)[C@H](CCCCN)NC(=O)CNC(=O)[C@H](Cc4ccccc4)NC(=O)[C@H]([C@@H](C)CC)NC(=O)[C@H](CO)NC(=O)CNC1=O)C(=O)N[C@@H](CCSC)C(=O)N[C@@H](CC(N)=O)C(=O)N[C@@H](CCCCN)C(=O)N[C@@H](CCCCN)C(=O)N3)C(=O)N[C@@H](CCCCN)C(=O)N[C@@H](CCC(N)=O)C(=O)N[C@@H](CCCCN)C(=O)N2` [Compound 19] (H-NMDMRCSASVECKQKCKKAIGSIFGKCMNKKCKCYPR-NH2; disulfide 6-27, 12-32, 16-34), the IC50 in series [1] was 0.12 nM; in series [2] it was 0.22 nM; in series [4], 435 nM; in series [7] it was ≤ 1 nM; in series [5], 45 nM; in series [6], > 3000 nM. Also, in series [6], the “Selectivity Kv1.1/Kv1.3” value was >13500.
`CCCC[C@@H]1NC(=O)[C@@H]2CSSC[C@H](NC(=O)[C@@H](N)CCCNC(=N)N)C(=O)N[C@@H](CO)C(=O)N[C@@H](C)C(=O)N[C@@H](CO)C(=O)N[C@@H](C(C)C)C(=O)N[C@@H](CCC(=O)O)C(=O)N[C@H]3CSSC[C@H](NC(=O)[C@H](CCCCN)NC(=O)[C@H](CCCCN)NC(=O)[C@H](CC(N)=O)NC1=O)C(=O)N[C@@H](CCCCN)C(=O)N[C@H](C(=O)N[C@@H](Cc1ccc(O)cc1)C(=O)N1CCC[C@H]1C(=O)N[C@@H](CCCNC(=N)N)C(N)=O)CSSC[C@H](NC(=O)[C@H](CCCCN)NC(=O)[C@H](CCC(N)=O)NC(=O)[C@H](CCCCN)NC3=O)C(=O)N[C@@H](CC(C)C)C(=O)N[C@@H](CCCCN)C(=O)N[C@@H](C)C(=O)N[C@@H]([C@@H](C)CC)C(=O)NCC(=O)N[C@@H](CO)C(=O)N[C@@H]([C@@H](C)CC)C(=O)N[C@@H](Cc1ccccc1)C(=O)NCC(=O)N[C@@H](CCCCN)C(=O)N2` [Compound 106] (H-RCSASVECKQKCLKAIGSIFGKC[Nle]NKKCKCYPR-NH2; disulfide 2-23, 8-28, 12-30): the IC50 is 0.092 nM in series [1]; 0.4 nM in series [2]; 1300 nM in series [4]; ≤ 1 nM in series [7]; 280 nM in series [5]; > 3000 nM in series [6]. In series [6], the “Selectivity Kv1.1/Kv1.3” value is >7600.

Values taken from patent US11780893B2, “Kv1.3 blockers” (Zealand Pharma A/S, priority 2019, dated 2023).
